In paper PMC7349888, “Synthesis and Evaluation of Dodecaboranethiol Containing Kojic Acid (KA-BSH) as a Novel Agent for Boron Neutron Capture Therapy” (Cells, 2020):
Several values for one entry are separate records, joined by “and”; a condition that tells them apart may be missing. Identical values can stand only once.

Columns and labels:
F98 rat glioma cells [1] = experiment: In vitro 10B uptake in F98 cells (ICP-AES); format: cell-based; details: 24 h incubation in DMEM with 1 mM boron compound
Method: For the in vitro ^10B uptake study, B16 mouse melanoma cells, C6 rat glioma cells, and F98 rat glioma cells were used. B16 and C6 cells were used for in vitro testing at Osaka Prefecture University. Based on results from initial in vitro screening, the in vitro ^10B uptake study using F98 glioma cells were performed at Osaka Medical College. Four hundred thousand cells were seeded in a tissue culture dish (100 × 20 mm; Becton Dickinson, Franklin Lakes, NJ, USA) with DMEM supplemented with 10% FBS and 10% penicillin and streptomycin at 37 °C in a 5% CO2 atmosphere. After incubation for 4 days at 37 °C, the medium was removed, and DMEM with 10% FBS containing 1 mM KA-BSH, BSH, or BPA was added to each dish. The cells were incubated for an additional 24 h at 37 °C. The medium was then removed, and the cells were washed twice with 4 °C phosphate-buffered saline (PBS) and detached with trypsin–ethylenediamine tetraacetic acid solution. PBS was then added, and cells were digested overnight with 1 N nitric acid solution (Wako Pure Chemical Industries, Osaka, Japan), and ^10B uptake was determined by inductively coupled plasma atomic emission spectrometry (ICP-AES) using an iCAP6000 emission spectrometer (Hitachi High-Technologies, Tokyo, Japan).

F98 rat glioma cells [2] = experiment: Cell viability assay (WST-8) in F98 cells; format: cell-based; details: WST-8 test, read-out: IC50 (cytotoxicity)
Method: The cytotoxicity of KA-BSH was assayed using the water soluble tetrazolium (WST)-8 assay with a cell-counting kit (Wako Pure Chemicals, Osaka, Japan) following a modified version of the manufacturer-provided protocols. Relative cell survival was calculated according to Equation (1):(1) Relative cell survival (%)=absorbance value of compound treated well/absorbance value of untreated well×100

F98 glioma bearing rats = experiment: Biodistribution in F98 glioma bearing rats (ICP-AES); format: in vivo, rat; details: iv
From the text: All animal experimental procedures were approved by the Animal Use Review Board and Ethical Committee of Osaka Medical College (No. 25092, 28 October 2015) and Kyoto University Research Reactor Institute (KURRI, No. 25030-13, 1 April 2015), and performed following the Guide for the Care and Use of Laboratory Animals. Eight-week-old, male Fischer 344 rats weighing between 200 and 250 g were used (Japan SLC, Inc. Shizuoka, Japan). Rats were anesthetized with an intraperitoneal (ip) injection of a mixture of medetomidine 0.15 mg, midazolam 2 mg, and butorphanol 2.5 mg/kg body weight (bw). The head of each rat was fixed with a stereotactic frame (Model 900; David Kopf Instruments, Tujunga, CA, USA). The scalp was incised at the midline and a small burr hole was drilled into the skull (1 mm posterior and 4 mm right-lateral to the bregma), using an electric drill. And then, F98 glioma cells were injected into the brain using a 25 µL Hamilton microsyringe with a 26-gauge needle (model 1700 RN, Hamilton Bonaduz AG, Bonaduz, Switzerland). The needle was inserted at a 5 mm depth from the skull and F98 cells were diluted in 10 µL of DMEM containing low-gelling temperature agarose at a concentration of either 10^3 for therapeutic experiments or 10^5 cells for biodistribution experiments. They were injected over 30 s using an automatic infuser pump. The needle entry hole was immediately sealed with bone wax and the incised scalp was closed with 3-0 silk sutures (Ethicon, North Ryde, NSW). After surgery, all animals were given atipamezole hydrochloride (0.15 mg/kg bw, ip).
Biodistribution studies were performed in Fischer rats bearing intracerebral implants of F98 rat glioma cells. 10–13 days after tumor implantation of 10^5 F98 glioma cells, when signs of a progressively growing tumor were evident (weight loss, lethargy, hunching, and ataxia), biodistribution studies were initiated at which time the animals had tumors weighing 90–180 mg. […] To compare its biodistribution with that of BPA or BSH, another group of rats received an iv injection of BPA at a concentration of 10 mg ^10B/kg bw or BSH at a concentration of 30 mg ^10B/kg bw. Biodistribution was determined 1 and 3 h after termination of iv injection. Animals were euthanized by an overdose of sevoflurane following which tumors and normal tissues, consisting of ipsilateral brain, contralateral brain, blood, heart, lung, liver, spleen, kidney, skin, and muscle, were removed and weighed for ^10B determination by ICP-AES.

Compound: N[C@@H](Cc1ccc(B(O)O)cc1)C(=O)O [BPA, boronophenylalanine, reference compound]
- 10B concentration of F98 rat glioma cells (F98 rat glioma cells [1]): 0.654 ± 0.062 µg 10B/10^7 cells
- IC50 (F98 rat glioma cells [2]): > 20000 µM
- 10B concentration, Blood (F98 glioma bearing rats; 10 mg 10B/kg, 1 h): 6.65 µg 10B/g
- 10B concentration, Contralateral brain (F98 glioma bearing rats; 10 mg 10B/kg, 1 h): 3.19 µg 10B/g
- 10B concentration, Heart (F98 glioma bearing rats; 10 mg 10B/kg, 1 h): 6.12 µg 10B/g
- 10B concentration, Ipsilateral brain (F98 glioma bearing rats; 10 mg 10B/kg, 1 h): 2.94 µg 10B/g
- 10B concentration, Kidney (F98 glioma bearing rats; 10 mg 10B/kg, 1 h): 27.57 µg 10B/g
- 10B concentration, Liver (F98 glioma bearing rats; 10 mg 10B/kg, 1 h): 5.40 µg 10B/g
- 10B concentration, Lung (F98 glioma bearing rats; 10 mg 10B/kg, 1 h): 5.74 µg 10B/g
- 10B concentration, Muscle (F98 glioma bearing rats; 10 mg 10B/kg, 1 h): 5.25 µg 10B/g
- 10B concentration, Skin (F98 glioma bearing rats; 10 mg 10B/kg, 1 h): 7.22 µg 10B/g
- 10B concentration, Spleen (F98 glioma bearing rats; 10 mg 10B/kg, 1 h): 7.58 µg 10B/g
- 10B concentration, Tumor (F98 glioma bearing rats; 10 mg 10B/kg, 1 h): 13.54 µg 10B/g and 13.54 ± 4.82 µg 10B/g
- T/Bl (tumor to blood ratio) (F98 glioma bearing rats; 10 mg 10B/kg, 1 h): 2.00
- T/Br (tumor to normal contralateral brain ratio) (F98 glioma bearing rats; 10 mg 10B/kg, 1 h): 4.21
- 10B concentration, Blood (F98 glioma bearing rats; 10 mg 10B/kg, 3 h): 4.41 µg 10B/g
- 10B concentration, Contralateral brain (F98 glioma bearing rats; 10 mg 10B/kg, 3 h): 2.95 µg 10B/g
- 10B concentration, Heart (F98 glioma bearing rats; 10 mg 10B/kg, 3 h): 3.92 µg 10B/g
- 10B concentration, Ipsilateral brain (F98 glioma bearing rats; 10 mg 10B/kg, 3 h): 3.29 µg 10B/g
- 10B concentration, Kidney (F98 glioma bearing rats; 10 mg 10B/kg, 3 h): 11.69 µg 10B/g
- 10B concentration, Liver (F98 glioma bearing rats; 10 mg 10B/kg, 3 h): 3.54 µg 10B/g
- 10B concentration, Lung (F98 glioma bearing rats; 10 mg 10B/kg, 3 h): 4.12 µg 10B/g
- 10B concentration, Muscle (F98 glioma bearing rats; 10 mg 10B/kg, 3 h): 4.89 µg 10B/g
- 10B concentration, Skin (F98 glioma bearing rats; 10 mg 10B/kg, 3 h): 4.80 µg 10B/g
- 10B concentration, Spleen (F98 glioma bearing rats; 10 mg 10B/kg, 3 h): 6.02 µg 10B/g
- 10B concentration, Tumor (F98 glioma bearing rats; 10 mg 10B/kg, 3 h): 11.05 µg 10B/g
- T/Bl (tumor to blood ratio) (F98 glioma bearing rats; 10 mg 10B/kg, 3 h): 2.53
- T/Br (tumor to normal contralateral brain ratio) (F98 glioma bearing rats; 10 mg 10B/kg, 3 h): 3.83

Compound: dodecaboranethiol [BSH, reference compound]
- 10B concentration of F98 rat glioma cells (F98 rat glioma cells [1]): 0.508 ± 0.072 µg 10B/10^7 cells
- IC50 (F98 rat glioma cells [2]): 1680 µM
- 10B concentration, Blood (F98 glioma bearing rats; 30 mg 10B/kg, 1 h): 19.17 µg 10B/g
- 10B concentration, Contralateral brain (F98 glioma bearing rats; 30 mg 10B/kg, 1 h): 0.32 µg 10B/g
- 10B concentration, Heart (F98 glioma bearing rats; 30 mg 10B/kg, 1 h): 3.25 µg 10B/g
- 10B concentration, Ipsilateral brain (F98 glioma bearing rats; 30 mg 10B/kg, 1 h): 0.44 µg 10B/g
- 10B concentration, Kidney (F98 glioma bearing rats; 30 mg 10B/kg, 1 h): 20.84 µg 10B/g
- 10B concentration, Liver (F98 glioma bearing rats; 30 mg 10B/kg, 1 h): 20.81 µg 10B/g
- 10B concentration, Lung (F98 glioma bearing rats; 30 mg 10B/kg, 1 h): 12.70 µg 10B/g
- 10B concentration, Muscle (F98 glioma bearing rats; 30 mg 10B/kg, 1 h): 5.25 µg 10B/g
- 10B concentration, Skin (F98 glioma bearing rats; 30 mg 10B/kg, 1 h): 7.99 µg 10B/g
- 10B concentration, Spleen (F98 glioma bearing rats; 30 mg 10B/kg, 1 h): 5.68 µg 10B/g
- 10B concentration, Tumor (F98 glioma bearing rats; 30 mg 10B/kg, 1 h): 5.49 µg 10B/g and 5.49 ± 0.25 µg 10B/g
- T/Bl (tumor to blood ratio) (F98 glioma bearing rats; 30 mg 10B/kg, 1 h): 0.29
- T/Br (tumor to normal contralateral brain ratio) (F98 glioma bearing rats; 30 mg 10B/kg, 1 h): 17.61
- 10B concentration, Blood (F98 glioma bearing rats; 30 mg 10B/kg, 3 h): 5.16 µg 10B/g
- 10B concentration, Contralateral brain (F98 glioma bearing rats; 30 mg 10B/kg, 3 h): 0.24 µg 10B/g
- 10B concentration, Heart (F98 glioma bearing rats; 30 mg 10B/kg, 3 h): 1.15 µg 10B/g
- 10B concentration, Ipsilateral brain (F98 glioma bearing rats; 30 mg 10B/kg, 3 h): 0.36 µg 10B/g
- 10B concentration, Kidney (F98 glioma bearing rats; 30 mg 10B/kg, 3 h): 10.83 µg 10B/g
- 10B concentration, Liver (F98 glioma bearing rats; 30 mg 10B/kg, 3 h): 8.10 µg 10B/g
- 10B concentration, Lung (F98 glioma bearing rats; 30 mg 10B/kg, 3 h): 4.92 µg 10B/g
- 10B concentration, Muscle (F98 glioma bearing rats; 30 mg 10B/kg, 3 h): 0.87 µg 10B/g
- 10B concentration, Skin (F98 glioma bearing rats; 30 mg 10B/kg, 3 h): 4.00 µg 10B/g
- 10B concentration, Spleen (F98 glioma bearing rats; 30 mg 10B/kg, 3 h): 2.74 µg 10B/g
- 10B concentration, Tumor (F98 glioma bearing rats; 30 mg 10B/kg, 3 h): 3.01 µg 10B/g
- T/Bl (tumor to blood ratio) (F98 glioma bearing rats; 30 mg 10B/kg, 3 h): 0.61
- T/Br (tumor to normal contralateral brain ratio) (F98 glioma bearing rats; 30 mg 10B/kg, 3 h): 12.71
